We go through one substance from publication PMC3923439, “Anti-inflammatory properties of a novel peptide interleukin 1 receptor antagonist” (Journal of Neuroinflammation, 2014).

In data set [1] the test system is LPS-induced neuroinflammation. The data set is described as follows: Lipopolysaccharide-induced impairment of social behavior. In kind it is in vivo. The settings on record: rat, Ana 100 mg/kg s.c. The protocol:
The peripheral administration of LPS, the active fragment of bacterial endotoxin, results in an increase in the plasma levels of all proinflammatory cytokines and behavioral depression. LPS-induced behavioral depression was assessed by measuring the reduction of the duration of social interaction during 4-minute sessions. Six- to seven-week-old rats were handled for five days, habituated to the test cages and the experiment room and trained for social interaction with three-week-old juvenile rats introduced into the test cage for four minutes two days before the actual experiment. On the day of the experiment, the rats were intraperitoneally injected (i.p.) with saline or LPS (Escherichia coli 0111:B4; Sigma-Aldrich) dissolved in saline (250 μg/kg). Immediately after the i.p. injection, Ilantide-t (Ila; 10 mg/kg, equivalent to 2.1 μmol/kg), Ana ([…], equivalent to 5.8 μmol/kg) or saline was injected subcutaneously. The volume of all of the injections was 1.0 ml/kg. Six experimental groups were used: vehicle i.p./vehicle s.c. (veh/veh; n = 10), vehicle i.p./Ilantide-t s.c. (veh/Ila; n = 8), vehicle i.p./Ana s.c. (veh/Ana; n = 9), LPS i.p./vehicle s.c. (LPS/veh; n = 10), LPS i.p./Ilantide-t s.c. (LPS/Ila; n = 11) and LPS i.p./Ana s.c. (LPS/Ana; n = 11). The injections and weighing of the rats were performed immediately after the first test session (0 h), and the animals were tested and weighed again 2, 4, 6, 8, and 24 hours later. Different juvenile animals were presented on each occasion. Social interaction consisted of anogenital sniffing, licking and chewing the fur of the juveniles by the experimental animals and was monitored with a video camera. […] The duration of social interaction at each time point is expressed as the percentage of baseline values and was averaged for each experimental group. Social interaction was scored by an observer who was blinded to the treatment of the animals. For evaluation of levels of pro- and anti-inflammatory cytokines in blood, rats were injected with LPS and then immediately with either vehicle (n = 8) or Ilantide-t (n = 8) as described above. In addition, a control group of animals (n = 4) was treated with Ilantide-t alone (control). Blood samples were collected at 0, 2 and 6 hours after injections as described for the pharmacokinetics study and stored at -20°C until use. The levels of IL-6, IFN-γ and IL-10 were determined using corresponding rat ELISA kits according to the manufacturer’s protocols (all from BD Biosciences, San Diego, CA, USA).

Data set [2] relates to neonatal rat pancreatic islets. The data set is described as follows: IL-1β-induced nitric oxide production (nitrite, Griess reagent). Type of data set: cell-based. The settings on record: nitrites in supernatants of the apoptosis experiments, four independent experiments. The protocol: (§1) For cell death detection, rat islets were incubated with 150 pg/ml IL-1β (BD Pharmingen, San Diego, CA, USA) alone or in combination with various concentrations of Ana and Ilantide for 24 hours at 37°C in humidified atmospheric air. Rat islet cell death was assessed by cell death detection ELISA (Roche, Lund, Sweden) as previously described. As a surrogate measure of nitric oxide production, Griess reagent (1:1 aqueous mixture of 0.1% naphthylethylenediamine hydrochloride and 1% sulfanilamide + 5% H3PO4) was mixed in a 1:1 ratio with 100 μl of supernatant samples to determine the nitrite content in supernatants from the cell death assays described above.
Figure 8 Effect of Ilantide on interleukin 1β-induced nitric oxide production. Anakinra (A) but none of the peptides, Ilantide-m (B) or Ilantide-t (C), inhibited interleukin 1β (IL-1β)-induced nitric oxide production. The results of four independent experiments are shown. *P < 0.05 and **P < 0.01 compared with cultures treated with IL-1 alone (one-way analysis of variance followed by Dunnett’s post hoc test).

Data set [3] deals with neonatal rat pancreatic islets. Nature of the data set: IL-1β-induced rat islet cell apoptosis (cell death detection ELISA). Type of data set: cell-based. As to conditions: rat islets, 8.68 nM (150 pg/ml) IL-1β, 24 hours. Here is the method:
Neonatal rat islets were isolated from 3- to 6-day-old outbred Wistar rats (Taconic, Ejby, Denmark) as previously described. Islets were precultured and maintained in RPMI 1640 medium (Gibco/Life Technologies) supplemented with 20 mmol/L HEPES buffer, 0.038% (wt/vol) NaHCO3, 100 U/ml penicillin, 100 µg/ml streptomycin and 10% (vol/vol) newborn calf serum (NCS) at 37°C in humidified atmospheric air. Prior to experimentation, the islets were randomly distributed to 24-well dishes and incubated for 2 hours in RPMI 1640 medium supplemented as described above, but with 0.5% (vol/vol) NCS relevant reagents were added as indicated.
as §1
Figure 7 Effect of Ilantide on interleukin 1β-induced rat islet cell apoptosis. Rat pancreatic islets were preincubated for 30 minutes in the absence or presence of various concentrations of anakinra (A), Ilantide-m (B) or Ilantide-t (C) and then exposed to […] interleukin 1β (IL-1β) for 24 hours. Cytokine-induced apoptosis was determined by cell death detection enzyme-linked immunosorbent assay. Apoptosis rates are presented as fold induction compared with untreated control islets (white bars). The data from four independent experiments are presented as mean ± SEM. *P < 0.05 and **P < 0.01 compared with cultures treated with IL-1β alone (one-way analysis of variance followed by Dunnett’s post hoc test).
For orientation: In an ELISA, binding on a coated surface is turned into a signal by an enzyme label.

For “Ana: recombinantly produced N-terminal methionylated, nonglycosylated version of human IL-1Ra [reference compound]”, the “Effect on LPS-induced body weight decrease” value in data set [1] (24 hours after LPS 250 μg/kg i.p., Ilantide-t 10 mg/kg, P < 0.05) was “attenuated the anorexigenic effect of LPS”. The “Social behavior per se (without LPS)” value in data set [1] (Ilantide-t 10 mg/kg s.c., vehicle i.p.) is reported as “did not modify social behavior per se”. Besides, in data set [1] (LPS 250 μg/kg i.p., Ilantide-t 10 mg/kg s.c., 2 to 24 hours), the “Effect on LPS-induced depression of social activity (sickness behavior)” value was “No significant effect”. Further, in data set [2], the “Inhibition of IL-1β-induced nitric oxide production” value is “inhibited”. Moreover, the “Concentration giving maximal inhibition of IL-1β-induced apoptosis” value in data set [3] stood at 86.8 µM. For the same substance, the “Maximal inhibition of IL-1β-induced apoptosis” value in data set [3] (30 minutes preincubation, four independent experiments) was determined as 64%.
